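Dose response: 5 concentrations. Exposure: 48 h. Format: 96-well plates. Endpoint: linear interpolation; highest concentration if not reached. At the GI50, growth is halved.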 Calls of active or inactive are those of the source. Rule as the data show it: active = GI50 up to about 1.1 µM and inactive = higher.
How the values were obtained:
Experiment in all cases: NCI tumour cell line growth inhibition, 48 h
K562 = system: K562
UACC-257 = system: UACC-257
OVCAR-3 = system: OVCAR-3
SK-MEL-28 = system: SK-MEL-28
SNB-75 = system: SNB-75
SK-MEL-5 = system: SK-MEL-5
NCI/ADR-RES = system: NCI/ADR-RES
SK-OV-3 = system: SK-OV-3
UO-31 = system: UO-31
A498 = system: A498
SK-MEL-2 = system: SK-MEL-2
NCI-H460 = system: NCI-H460
SF-539 = system: SF-539
A549 = system: A549
LOX IMVI = system: LOX IMVI
SR = system: SR
HCT-116 = system: HCT-116
IGROV-1 = system: IGROV-1
RPMI-8226 = system: RPMI-8226
MCF7 = system: MCF7

Row | Structure (SMILES) | GI50 (K562) | GI50 (UACC-257) | GI50 (OVCAR-3) | GI50 (SK-MEL-28) | GI50 (SNB-75) | GI50 (SK-MEL-5) | GI50 (NCI/ADR-RES) | GI50 (SK-OV-3) | GI50 (UO-31) | GI50 (A498) | GI50 (SK-MEL-2) | GI50 (NCI-H460) | GI50 (SF-539) | GI50 (A549) | GI50 (LOX IMVI) | GI50 (SR) | GI50 (HCT-116) | GI50 (IGROV-1) | GI50 (RPMI-8226) | GI50 (MCF7)
1 | O=C(c1ccccc1)c1nc2ccc(Cl)cc2cc1C(Br)Br | 244 nM (active) | 525 nM (active) | 326 nM (active) | 261 nM (active) | 278 nM (active) | 692 nM (active) | 161 nM (active) | 605 nM (active) | 385 nM (active) | 1790 nM (inactive) | 450 nM (active) | 281 nM (active) | 246 nM (active) | 1440 nM (inactive) | 1470 nM (inactive) | 1680 nM (inactive) | 108 nM (active) | 735 nM (active) | 229 nM (active) | 314 nM (active)
2 | C=C(Cl)[C@@](Cl)(CBr)CC[C@@H](Br)C(C)(C)Cl | 473 nM (active) | 557 nM (active) | 506 nM (active) | 394 nM (active) | 240 nM (active) | 2670 nM (inactive) | 522 nM (active) | 9160 nM (inactive) | 834 nM (active) | 938 nM (active) | 458 nM (active) | 108 nM (active) | 141 nM (active) | 1430 nM (inactive) | 13200 nM (inactive) | 15400 nM (inactive) | 250 nM (active) | 11700 nM (inactive) | 56.6 nM (active) | 249 nM (active)
3 | [N-]=[N+]=CC(=O)C1CCCN1C(=O)c1ccccc1 (stereo not given) | > 10000 nM (inactive) | > 10000 nM (inactive) | > 10000 nM (inactive) | > 10000 nM (inactive) | 585 nM (active) | > 10000 nM (inactive) | > 10000 nM (inactive) | > 10000 nM (inactive) | > 10000 nM (inactive) | > 10000 nM (inactive) | > 10000 nM (inactive) | > 10000 nM (inactive) | > 10000 nM (inactive) | > 10000 nM (inactive) | > 10000 nM (inactive) | > 10000 nM (inactive) | > 10000 nM (inactive) | > 10000 nM (inactive) | > 10000 nM (inactive) | > 10000 nM (inactive)
